Results published in patent US20110046185A1, “Arylchalcogenoarylalkyl-substituted imidazolidine-2,4-diones, process for preparation thereof, medicaments comprising these compounds and use thereof” (SANOFI-AVENTIS, priority 2008, published 2011).
Where two headings read alike, the source gives them in different places.

Columns and labels:
hCB1R [1] = target: T1, hCB1R (Homo sapiens, UniProt P21554); assay: Binding to the CB1 receptor ([3H]-SR141716A displacement, CHO-K1/cannabinoid CB1 protein); parameters: expressed in transfected cells
T1 sequence (P21554 whole entry): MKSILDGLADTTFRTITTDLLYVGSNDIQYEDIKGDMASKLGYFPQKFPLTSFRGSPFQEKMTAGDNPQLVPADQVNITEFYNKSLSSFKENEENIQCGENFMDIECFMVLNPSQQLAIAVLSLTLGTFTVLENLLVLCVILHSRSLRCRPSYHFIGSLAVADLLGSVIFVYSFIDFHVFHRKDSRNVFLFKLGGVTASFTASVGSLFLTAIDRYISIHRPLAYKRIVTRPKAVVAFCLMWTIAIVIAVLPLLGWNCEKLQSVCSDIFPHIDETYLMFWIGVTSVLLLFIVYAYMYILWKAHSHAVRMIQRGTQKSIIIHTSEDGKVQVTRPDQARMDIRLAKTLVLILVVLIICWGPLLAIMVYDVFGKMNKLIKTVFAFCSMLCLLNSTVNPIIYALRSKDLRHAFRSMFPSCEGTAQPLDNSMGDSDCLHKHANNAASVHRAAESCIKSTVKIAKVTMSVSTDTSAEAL
Method: Test compounds: The compounds (3 μl, 10 mM, 100% DMSO), pipetted into 96-well PP microtiter plates, were diluted with 27 μl of 100% DMSO (dimethyl sulfoxide). Proceeding from this solution, further 3-fold dilution steps were undertaken by transferring 10 μl in each case to a new PP microtiter plate and adding a further 20 μl of 100% DMSO. In each case 6 μl of these solutions were transferred into new 96-well PP microtiter plates and made up with 144 μl of assay buffer. The end concentrations ranged from 10 μM to 0.005 μM.
Negative control: AM 251, dissolved in assay buffer with 1% DMSO, was added to the dilution series in the microtiter plates as a control. The end concentration was 1 μM.
Blank control: assay buffer with 1% DMSO was added to the dilution series of the microtiter plates as a blank control.
The values were calculated using the corrected raw data.
The values reported were obtained as average values of a double determination. The IC50 values were calculated from the measurements with the program Xlfit, formula 205. Ki values were obtained from the IC50 and Kd values utilizing the Cheng-Prusoff equation: […]
Literature: Cheng, Y.-C., and Prusoff, W. H. (1973) Biochem. Pharmacol 22, 3099-3108 Results: Ki values of example compounds;

hCB2R = target: T2, hCB2R (Homo sapiens, UniProt P34972); assay: In vitro functional FLIPR assay with recombinant HEK293 cells, cannabinoid 2 receptor; format: cell-based; settings: recombinant HEK293 cells expressing CB2 and Galpha16; Ca2+ change vs reference agonist
T2 construct: expressed in transfected cells; host or cells: HEK293
T2 sequence (P34972 whole entry): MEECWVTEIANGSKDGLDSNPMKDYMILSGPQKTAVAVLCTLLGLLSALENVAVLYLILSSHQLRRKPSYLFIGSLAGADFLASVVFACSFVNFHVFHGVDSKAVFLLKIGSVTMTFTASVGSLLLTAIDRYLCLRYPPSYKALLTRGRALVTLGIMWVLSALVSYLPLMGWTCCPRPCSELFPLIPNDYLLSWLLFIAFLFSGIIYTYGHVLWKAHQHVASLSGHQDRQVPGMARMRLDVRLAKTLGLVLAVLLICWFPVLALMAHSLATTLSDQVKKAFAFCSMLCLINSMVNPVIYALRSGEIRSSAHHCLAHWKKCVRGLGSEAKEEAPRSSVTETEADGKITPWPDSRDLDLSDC
Method: (§1) Function-testing assays were performed by means of the FLIPR technique (“Fluorometric Imaging Plate Reader”, Molecular Devices Corp.).
(§2) To this end, ligand-induced changes in the intracellular concentration of Ca^2+ in recombinant HEK293 cells, which expressed both a cannabinoid receptor (CB1 or CB2) and G-protein Galpha16, were determined. For the studies, cells were sown into 96-well microtiter plates (60 000 cells/well) and left to grow overnight. The medium was removed and the cells were incubated in buffer which contained the fluorescent dye Fluo-4. After this loading with dye, the cells were washed, test substance was added dissolved in buffer, the mixture was incubated for 20 minutes, a known cannabinoid receptor agonist as a reference agonist was added in buffer and, finally, the changes in the intracellular Ca^2+ concentration were measured in the FLIPR unit.
(§3) Results were presented as the percentage change relative to the control (0%: analogous experiment without test substance and without reference agonist, i.e. only with buffer; 100%: analogous experiment without test substance, but with reference agonist in excess), and used to calculate dose/action curves, and IC50 values were determined.

hCB1R [2] = target: T1, hCB1R; assay: In vitro functional FLIPR assay with recombinant HEK293 cells, cannabinoid 1 receptor; format: cell-based; parameters: expressed in transfected cells; host or cells: HEK293; settings: recombinant HEK293 cells expressing CB1 and Galpha16; Ca2+ change vs reference agonist
Method: as §1, §2, §3

[3] = [3H]-SR141716A 0.5 nM, Ki from IC50 by Cheng-Prusoff, average of double determination, read-out: hCB1R, binding Ki

| Ki (hCB1R [1]; [3]) [nM] | SMILES | IC50 (hCB2R) [nM] | IC50 (hCB1R [2]) [nM] | Ki (hCB1R [1]) [nM] |
| --- | --- | --- | --- | --- |
| 284 | CC1(C)C(=O)N(c2cc(C(F)(F)F)ccc2F)C(=O)N1Cc1ccccc1Oc1ccccc1 [Example 12] |  |  |  |
| 289 | CC1(C)C(=O)N(c2cccc(SC(F)(F)F)c2)C(=O)N1Cc1ccccc1Oc1ccccc1 [Example 14] |  |  |  |
| 2 | CC1(C)C(=O)N(c2ccnc(Cl)c2)C(=O)N1Cc1ccccc1Oc1ccccc1 [Example 82] | > 10000 | 100 |  |
| 24 | CC1(C)C(=O)N(c2ccnc(C(F)(F)F)c2)C(=O)N1Cc1ccccc1Oc1ccccc1 [Example 83] |  |  |  |
| 311 | CC1(C)C(=O)N(c2ccc(C#N)nc2)C(=O)N1Cc1ccccc1Oc1ccccc1 [Example 86] |  |  |  |
|  | COC(=O)c1ccc(Oc2ccccc2CN2C(=O)N(c3ccc(C#N)c(C(F)(F)F)c3)C(=O)C2(C)C)cc1 [Example 96] |  | 152 | 22 |
|  | CC1(C)C(=O)N(c2ccc(C#N)c(C(F)(F)F)c2)C(=O)N1Cc1ccccc1Oc1ccc(C(N)=O)cc1 [Example 98, 4-{2-[3-(4-Cyano-3-trifluoromethylphenyl)-5,5-dimethyl-2,4-dioxo-imidazolidin-1-ylmethyl]phenoxy}benzamide] | > 10000 | 507 |  |
|  | CC1(C)C(=O)N(c2ccc(C#N)c(C(F)(F)F)c2)C(=O)N1Cc1ccccc1Sc1ccc(Cl)cc1 [Example 105, 4-{3-[2-(4-Chlorophenylsulfanyl)benzyl]-4,4-dimethyl-2,5-dioxoimidazolidin-1-yl}-2-trifluoromethylbenzonitrile] | > 10000 |  | 44 |

| SMILES | Ki (hCB1R [1]; [3]) [nM] | IC50 (hCB2R) [nM] | IC50 (hCB1R [2]) [nM] | Ki (hCB1R [1]) [nM] |
| --- | --- | --- | --- | --- |
| CC1(C)C(=O)N(c2cccc(C(F)(F)F)c2)C(=O)N1Cc1ccccc1Oc1ccccc1 [Example 8] | 249 |  |  |  |
| CC1(C)C(=O)N(c2ccc(C#N)c(C(F)(F)F)c2)C(=O)N1Cc1ccccc1Oc1ccc(C(=O)O)cc1 [Example 97, 4-{2-[3-(4-Cyano-3-trifluoromethylphenyl)-5,5-dimethyl-2,4-dioxo-imidazolidin-1-ylmethyl]phenoxy}benzoic acid] | 533 | > 10000 |  |  |
| CC1(C)C(=O)N(c2ccc(C#N)c(C(F)(F)F)c2)C(=O)N1Cc1ccccc1[S+]([O-])c1ccc(Cl)cc1 (centres unmarked) [Example 107, 4-{3-[2-(4-Chlorobenzenesulfinyl)benzyl]-4,4-dimethyl-2,5-dioxoimidazolidin-1-yl}-2-trifluoromethylbenzonitrile] | 232 |  |  |  |
